From patent US4231928A, “Antibacterial agents” (priority 1979, dated 1980)

Columns and labels:
S. enteritidis = assay: Tube dilution (Nutrient broth), S. enteritidis; type: cell-based; conditions: Salmonella enterica, Se-1 S. enteritidis A9531, Table 3
Procedure: (§1) The MIC's of BB-P598 against various organisms were also determined by the tube dilution method (Nutrient broth), and the results, compared with sulbenicillin, are shown in Table 3.

Pseudomonas = assay: Agar dilution, activity against Pseudomonas strains; type: cell-based
Procedure: (§2) The Minimum Inhibitory Concentrations (MIC) for sodium 6-[D-(-)-α-phenyl-α-(7-hydroxy-4-oxo-4H-pyrimido[1,2-b]pyridazin-3-ylcarboxamido)acetamido]penicillanate (BB-P598) and sulbenicillin were determined by the serial twofold agar dilution method using Steers' apparatus on Mueller-Hinton agar plates against 31 test organisms for the primary screening (Table 1) and also against 61 strains of Pseudomonas aeruginosa for the secondary evaluation (Table 2).

[1] = tested on: S. aureus and the Gram-negative organisms except Pseudomonas; assay: Agar dilution, activity against S. aureus and Gram-negative organisms except Pseudomonas; type: cell-based; conditions: most of the 6 strains of S. aureus and 19 Gram-negative strains except Pseudomonas
Procedure: as §2

S. pyogenes = assay: Tube dilution (Nutrient broth), S. pyogenes; type: cell-based; conditions: Streptococcus pyogenes, Sp-3 S. pyogenes A9604, Table 3
Procedure: as §1

P. aeruginosa A9843 [2] = assay: MIC of the infecting strain with the in vivo test, P. aeruginosa A9843; type: cell-based; conditions: Pseudomonas aeruginosa, Table 7
P. aeruginosa A9843 [3] = assay: Effect of inoculum size on MIC, serial tube dilution (Nutrient Broth); type: cell-based; conditions: for MIC: Pseudomonas aeruginosa
Procedure: (§3) The effect of inoculum size of the MIC and MBC (Minimum Bacteriacidal Concentration) of BB-P598 against P. aeruginosa A9843 also was determined. The MIC's were determined by the serial tube dilution method in Nutrient Broth using four levels of inoculum size (5.3×10^3, 5.3×10^4, 5.3×10^5 and 5.3×10^6 cells/ml), along with sulbenicillin as a reference standard.

S. aureus Smith [4] = assay: In vivo activity in experimental infection in mice, S. aureus Smith; conditions: single; for Survival/Tested: 100×LD50 challenge
Procedure: (§4) BB-P598 was evaluated in vivo in experimental infections in mice. The pathogenic bacteria employed were P. aeruginosa A9843, E. coli Juhl and S. aureus Smith. Mice were challenged intraperitoneally with a 100×LD50 dose of the pathogens in a 5% suspension of hog gastric mucin. The penicillin was administered subcutaneously as a single treatment, just after the bacterial challenge.
(§5) PD50 = Protective Dose50 , i.e. the dose required to give
(§6) protection to 50% of the infected mice.

E. coli Juhl [5] = assay: In vivo activity in experimental infection in mice, E. coli Juhl; conditions: single; for Survival/Tested: 100×LD50 challenge
Procedure: as §4, §5, §6

S. marcescens = assay: Tube dilution (Nutrient broth), S. marcescens; type: cell-based; conditions: Serratia marcescens; Sm-1 S. marcescens A20019; Nutrient broth; Table 3; read-out: MIC
Procedure: as §1

E. coli = assay: Tube dilution (Nutrient broth), E. coli; type: cell-based; conditions: Escherichia coli
Procedure: as §1

P. aeruginosa A9843 [6] = assay: Effect of inoculum size on MBC and MBC/MIC ratio; type: cell-based; conditions: Table 5; for MBC: Pseudomonas aeruginosa, 99% killed
Procedure: as §3
Subsequent to the above MIC determinations, aliquots from the non-turbid tubes were added to Nutrient Agar plates to determine the MBC value. The MBC was assigned to the lowest concentration which killed 99% of the original cell population.

K. pneumoniae = assay: Tube dilution (Nutrient broth), K. pneumoniae; type: cell-based; conditions: Klebsiella pneumoniae
E. cloacae = assay: Tube dilution (Nutrient broth), E. cloacae; type: cell-based; conditions: Enterobacter cloacae, El-1 E. cloacae A9656, Table 3
Procedure: as §1

P. mirabilis = assay: Tube dilution (Nutrient broth), P. mirabilis; type: cell-based; conditions: Proteus mirabilis, Pm-2 P. mirabilis A9900, Table 3
Procedure: as §1

S. aureus Smith [7] = assay: MIC of the infecting strain with the in vivo test, S. aureus Smith; type: cell-based; conditions: Staphylococcus aureus, Table 7, read-out: MC
P. aeruginosa A9843 [8] = assay: In vivo activity in experimental infection in mice, P. aeruginosa A9843; conditions: single; for Survival/Tested: 100×LD50 challenge
Procedure: as §4, §5, §6

P. aeruginosa = assay: Tube dilution (Nutrient broth), P. aeruginosa; type: cell-based; conditions: Pseudomonas aeruginosa
Procedure: as §1

D. pneumoniae = assay: Tube dilution (Nutrient broth), D. pneumoniae; type: cell-based; conditions: Streptococcus pneumoniae, Dp-4 D. pneumoniae A9585, Table 3
Procedure: as §1

S. aureus = assay: Tube dilution (Nutrient broth), S. aureus; type: cell-based; conditions: Staphylococcus aureus
Procedure: as §1

P. morganii = assay: Tube dilution (Nutrient broth), P. morganii; type: cell-based; conditions: Morganella morganii; Pg-8 P. morganii A15153; Nutrient broth; Table 3; read-out: MIC
Procedure: as §1

E. coli Juhl [9] = assay: MIC of the infecting strain with the in vivo test, E. coli Juhl; type: cell-based; conditions: Escherichia coli, Table 7
Pseudomonas aeruginosa = conditions: prior art penicillins; cited from earlier work

Question: Which MIC (S. enteritidis) does the source give for `CC1(C)S[C@@H]2[C@H](NC(=O)[C@H](NC(=O)c3cnc4ccc(O)nn4c3=O)c3ccccc3)C(=O)N2[C@H]1C(=O)O` [BB-P598, sodium 6-[D-(-)-α-phenyl-α-(7-hydroxy-4-oxo-4H-pyrimido[1,2-b]pyridazin-3-ylcarboxamido)acetamido]penicillanate] here?
Answer: Its MIC is 3.1 µg/mL.

Question: What about the “mean % relative activity to sulbenicillin” value (Pseudomonas; 6 strains of Pseudomonas in Table 1) of the same molecule?
Answer: The value was 713%.

Question: What about the “activity relative to sulbenicillin (in words)” value (Pseudomonas; Pseudomonas) of the same molecule?
Answer: The value was “significantly more active than sulbenicillin”.

Question: What about the “activity relative to sulbenicillin (in words)” value [1] of the same molecule?
Answer: The value was “equal to or less active than sulbenicillin”.

Question: What about the MIC (S. pyogenes) of the same molecule?
Answer: The MIC was 0.08 µg/mL.

Question: What about the MIC (P. aeruginosa A9843 [2]) of the same molecule?
Answer: Its MIC is 6.3 µg/mL.

Question: What about the MIC (P. aeruginosa A9843 [3]; A9843, inoculum 5.3 × 10^3 cell/ml, Nutrient Broth, Table 4, read-out: MIC) of the same molecule?
Answer: The MIC was 6.3 µg/mL.

Question: And the MIC (P. aeruginosa A9843 [3]; A9843, inoculum 5.3 × 10^3 cell/ml, Table 5, read-out: MIC)?
Answer: The MIC was 6.3 µg/mL.

Question: And the MIC (P. aeruginosa A9843 [3]; A9843, inoculum 5.3 × 10^4 cell/ml, Nutrient Broth, Table 4, read-out: MIC (a))?
Answer: The MIC was 12.5 µg/mL.

Question: And the MIC (P. aeruginosa A9843 [3]; A9843, inoculum 5.3 × 10^4 cell/ml, Table 5, read-out: MIC)?
Answer: The MIC was 12.5 µg/mL.

Question: What about the MIC (P. aeruginosa A9843 [3]; A9843, inoculum 5.3 × 10^5 cell/ml, Nutrient Broth, Table 4, read-out: MIC (b)) of the same molecule?
Answer: Its MIC is at most 25 µg/mL.

Question: And the MIC (P. aeruginosa A9843 [3]; A9843, inoculum 5.3 × 10^6 cell/ml, Nutrient Broth, Table 4, read-out: MIC (c))?
Answer: Its MIC is over 100 µg/mL.

Question: And the MIC ratio b/a (P. aeruginosa A9843 [3]; inoculum 5.3 × 10^5 / 5.3 × 10^4 cell/ml, Table 4)?
Answer: Its MIC ratio b/a is 2.

Question: And the MIC ratio c/a (P. aeruginosa A9843 [3]; inoculum 5.3 × 10^6 / 5.3 × 10^4 cell/ml, Table 4)?
Answer: Its MIC ratio c/a is over 8.

Question: And the Survival/Tested (S. aureus Smith [4]; 1.6 mg/kg sc)?
Answer: The Survival/Tested was 0/5.

Question: And the Survival/Tested (S. aureus Smith [4]; 6.3 mg/kg sc)?
Answer: Its Survival/Tested is 5/5.

Question: What about the Survival/Tested (S. aureus Smith [4]; 25 mg/kg sc) of the same molecule?
Answer: The Survival/Tested was 5/5.

Question: What about the Survival/Tested (S. aureus Smith [4]; 100 mg/kg sc) of the same molecule?
Answer: The Survival/Tested was 5/5.

Question: What about the ED50 (S. aureus Smith [4]; Staphylococcus aureus, sc, dose required to protect 50% of the infected mice, read-out: PD50) of the same molecule?
Answer: The ED50 was 3.1 mg/kg.

Question: What about the Survival/Tested (E. coli Juhl [5]; 1.6 mg/kg sc) of the same molecule?
Answer: The Survival/Tested was 0/5.

Question: What about the Survival/Tested (E. coli Juhl [5]; 6.3 mg/kg sc) of the same molecule?
Answer: The Survival/Tested was 1/5.

Question: What about the Survival/Tested (E. coli Juhl [5]; 25 mg/kg sc) of the same molecule?
Answer: Its Survival/Tested is 2/5.

Question: And the Survival/Tested (E. coli Juhl [5]; 100 mg/kg sc)?
Answer: The Survival/Tested was 3/5.

Question: And the ED50 (E. coli Juhl [5]; Escherichia coli, sc, dose required to protect 50% of the infected mice, read-out: PD50)?
Answer: The ED50 was 40 mg/kg.

Question: What about the MIC (S. marcescens) of the same molecule?
Answer: The MIC was 50 µg/mL.

Question: And the MIC (E. coli; Ec-1 E. coli NIHJ, Table 3)?
Answer: The MIC was 6.3 µg/mL.

Question: What about the MIC (E. coli; Ec-58 E. coli A9675, Table 3) of the same molecule?
Answer: The MIC was 50 µg/mL.

Question: And the MBC (P. aeruginosa A9843 [6]; A9843, inoculum 5.3 × 10^3 cell/ml)?
Answer: Its MBC is 50 µg/mL.

Question: What about the MBC (P. aeruginosa A9843 [6]; A9843, inoculum 5.3 × 10^4 cell/ml) of the same molecule?
Answer: Its MBC is over 100 µg/mL.

Question: What about the MBC/MIC (P. aeruginosa A9843 [6]; inoculum 5.3 × 10^3 cell/ml) of the same molecule?
Answer: Its MBC/MIC is 8.

Question: What about the MBC/MIC (P. aeruginosa A9843 [6]; inoculum 5.3 × 10^4 cell/ml) of the same molecule?
Answer: Its MBC/MIC is over 8.

Question: And the MIC (K. pneumoniae; Kp-3 K. pneumoniae A9977, Table 3)?
Answer: Its MIC is 12.5 µg/mL.

Question: What about the MIC (K. pneumoniae; Kp-4 K. pneumoniae A15130, Table 3) of the same molecule?
Answer: Its MIC is over 100 µg/mL.

Question: What about the MIC (E. cloacae) of the same molecule?
Answer: Its MIC is 100 µg/mL.

Question: What about the MIC (P. mirabilis) of the same molecule?
Answer: Its MIC is 6.3 µg/mL.

Question: What about the MIC (S. aureus Smith [7]) of the same molecule?
Answer: The MIC was 3.1 µg/mL.

Question: And the Survival/Tested (P. aeruginosa A9843 [8]; 1.6 mg/kg sc)?
Answer: The Survival/Tested was 0/5.

Question: And the Survival/Tested (P. aeruginosa A9843 [8]; 6.3 mg/kg sc)?
Answer: The Survival/Tested was 1/5.

Question: What about the Survival/Tested (P. aeruginosa A9843 [8]; 25 mg/kg sc) of the same molecule?
Answer: The Survival/Tested was 1/5.

Question: What about the Survival/Tested (P. aeruginosa A9843 [8]; 100 mg/kg sc) of the same molecule?
Answer: Its Survival/Tested is 3/5.

Question: And the ED50 (P. aeruginosa A9843 [8]; Pseudomonas aeruginosa, A9843, sc, dose required to protect 50% of the infected mice, read-out: PD50)?
Answer: The ED50 was 54 mg/kg.

Question: What about the MIC (P. aeruginosa; Pa-13 P. aeruginosa A9843, Table 3) of the same molecule?
Answer: The MIC was 6.3 µg/mL.

Question: And the MIC (P. aeruginosa; Pa-19 P. aeruginosa A20229, Table 3)?
Answer: Its MIC is 6.3 µg/mL.

Question: And the MIC (P. aeruginosa; Pa-57 P. aeruginosa A20546, Table 3)?
Answer: The MIC was 3.1 µg/mL.

Question: What about the MIC (D. pneumoniae) of the same molecule?
Answer: The MIC was 0.01 µg/mL.

Question: What about the MIC (S. aureus; Sa-2 S. aureus Smith +50% serum, Table 3) of the same molecule?
Answer: The MIC was 1.6 µg/mL.

Question: And the MIC (S. aureus; Sa-11 S. aureus BX-1633 A9606, Table 3)?
Answer: The MIC was 50 µg/mL.

Question: What about the MIC (S. aureus; Sa-44 S. aureus A15097, Table 3) of the same molecule?
Answer: The MIC was 100 µg/mL.

Question: And the MIC (P. morganii)?
Answer: Its MIC is over 100 µg/mL.

Question: What about the MIC (E. coli Juhl [9]) of the same molecule?
Answer: The MIC was 25 µg/mL.

Question: For `CC1(C)S[C@@H]2[C@H](NC(=O)C(C(=O)O)c3ccccc3)C(=O)N2[C@H]1C(=O)O` (stereo partly drawn) [Carbenicillin, reference compound], which “potency against Pseudomonas aeruginosa (in words)” value (Pseudomonas aeruginosa) is on record?
Answer: Its value is “only a relatively low potency”.
